Laboratory results: ChEMBL document CHEMBL1201862, “PubChem BioAssay data set” (2004)
Activity calls are given as the source filed them.

Tests used:
[1] = biological target: T1, Apoptotic protease-activating factor 1 (Homo sapiens, UniProt O14727); assay: SAR analysis of small molecule Activators of Apaf-1 in a Fluorescent assay.; type: functional; conditions: read-out: EC50_Mean;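 note: caspase-3 cleavage of fluorogenic Rh110 DEVD substrate downstream of apoptosome activation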
T1 sequence (O14727 whole entry): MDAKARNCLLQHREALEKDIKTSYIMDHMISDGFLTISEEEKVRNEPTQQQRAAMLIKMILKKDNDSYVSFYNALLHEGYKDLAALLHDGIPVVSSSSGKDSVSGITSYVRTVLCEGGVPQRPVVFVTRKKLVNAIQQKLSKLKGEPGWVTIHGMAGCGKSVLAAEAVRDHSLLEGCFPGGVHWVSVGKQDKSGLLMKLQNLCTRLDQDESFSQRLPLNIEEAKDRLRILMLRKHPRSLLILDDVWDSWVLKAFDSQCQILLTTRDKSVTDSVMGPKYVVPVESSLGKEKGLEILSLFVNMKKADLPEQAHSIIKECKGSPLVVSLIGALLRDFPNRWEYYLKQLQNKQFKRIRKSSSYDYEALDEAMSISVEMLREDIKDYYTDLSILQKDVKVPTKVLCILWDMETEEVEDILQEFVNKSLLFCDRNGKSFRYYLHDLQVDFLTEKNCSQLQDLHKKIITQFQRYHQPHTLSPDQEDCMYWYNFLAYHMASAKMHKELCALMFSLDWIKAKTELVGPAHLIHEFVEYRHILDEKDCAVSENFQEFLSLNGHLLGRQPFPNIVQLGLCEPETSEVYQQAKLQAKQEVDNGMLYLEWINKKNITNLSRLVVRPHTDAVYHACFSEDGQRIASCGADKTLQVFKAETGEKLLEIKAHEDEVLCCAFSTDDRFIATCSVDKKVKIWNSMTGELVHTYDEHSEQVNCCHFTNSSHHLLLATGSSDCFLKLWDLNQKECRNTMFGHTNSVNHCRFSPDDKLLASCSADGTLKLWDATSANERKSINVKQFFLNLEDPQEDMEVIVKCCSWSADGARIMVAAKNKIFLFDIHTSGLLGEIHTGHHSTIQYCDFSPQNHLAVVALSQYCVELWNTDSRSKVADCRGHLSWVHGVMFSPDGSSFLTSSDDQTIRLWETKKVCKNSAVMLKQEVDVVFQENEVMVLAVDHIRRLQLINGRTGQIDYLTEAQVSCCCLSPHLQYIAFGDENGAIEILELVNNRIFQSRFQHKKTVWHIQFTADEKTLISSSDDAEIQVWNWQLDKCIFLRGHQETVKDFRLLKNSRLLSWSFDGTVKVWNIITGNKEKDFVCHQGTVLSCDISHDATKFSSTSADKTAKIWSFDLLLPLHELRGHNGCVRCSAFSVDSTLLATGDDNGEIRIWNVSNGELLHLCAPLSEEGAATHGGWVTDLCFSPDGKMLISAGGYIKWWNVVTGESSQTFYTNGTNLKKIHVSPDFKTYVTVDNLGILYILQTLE

[2] = Luminescence Cell-Based Dose Retest to Confirm Inhibitors of Cancer Stem Cells. [Related pubchem assays (depositor defined):AID2717, AID2721]; type: functional; conditions: Homo sapiens
[3] = system: Vero; assay: cells; type: functional; conditions: Chlorocebus sabaeus
[4] = biological target: Hepatocyte nuclear factor 4-alpha (Homo sapiens, UniProt P41235); type: functional, cell-based;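 note: biochemical luminescence-based dose-response counterscreen measuring inhibition of HNF4 dimerization, run alongside a screen for blockers of ABHD5–perilipin-5 interaction; split luciferase complementation of HNF4 fusion proteins in cell lysate measuring dimerization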
Hepatocyte nuclear factor 4-alpha, sequence (P41235 whole entry, the tested form may be a part): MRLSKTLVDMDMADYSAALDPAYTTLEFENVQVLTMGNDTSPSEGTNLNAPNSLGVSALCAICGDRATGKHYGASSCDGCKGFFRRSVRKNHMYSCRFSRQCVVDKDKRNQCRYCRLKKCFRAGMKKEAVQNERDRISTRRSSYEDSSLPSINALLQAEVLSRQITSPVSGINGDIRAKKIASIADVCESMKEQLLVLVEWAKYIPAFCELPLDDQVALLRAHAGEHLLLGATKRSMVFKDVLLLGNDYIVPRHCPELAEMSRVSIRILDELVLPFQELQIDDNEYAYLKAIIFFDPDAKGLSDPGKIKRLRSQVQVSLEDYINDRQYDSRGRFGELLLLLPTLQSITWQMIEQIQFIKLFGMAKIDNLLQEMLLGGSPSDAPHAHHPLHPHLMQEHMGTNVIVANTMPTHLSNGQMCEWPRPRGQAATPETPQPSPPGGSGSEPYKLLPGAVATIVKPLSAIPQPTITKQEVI

[5] = biological target: Induced myeloid leukemia cell differentiation protein Mcl-1 (Homo sapiens, UniProt Q07820); assay: blockers of MCL1 binding to BIM peptide – biochemical, fluorescence polarization, BIM-BH3 peptide, 1536-well, dose response (AID 2217)
Induced myeloid leukemia cell differentiation protein Mcl-1, sequence (Q07820 whole entry): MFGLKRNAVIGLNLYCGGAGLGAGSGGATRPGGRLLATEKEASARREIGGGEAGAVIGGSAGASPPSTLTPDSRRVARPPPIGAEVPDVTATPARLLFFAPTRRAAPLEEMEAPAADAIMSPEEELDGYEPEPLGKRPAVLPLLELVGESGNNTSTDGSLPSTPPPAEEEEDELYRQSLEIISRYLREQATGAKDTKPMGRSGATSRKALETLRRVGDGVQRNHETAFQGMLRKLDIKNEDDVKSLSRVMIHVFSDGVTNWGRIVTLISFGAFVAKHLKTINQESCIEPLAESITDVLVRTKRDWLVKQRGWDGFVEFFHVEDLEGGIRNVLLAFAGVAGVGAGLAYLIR

[6] = biological target: Bcl-2-like protein 1 (Homo sapiens, UniProt Q07817); assay: blockers of BCLXL peptide binding – biochemical, fluorescence polarization, 1536-well, selectivity assay for MCL1 inhibitor project, dose response (AID 2218)
Bcl-2-like protein 1, sequence (Q07817 whole entry): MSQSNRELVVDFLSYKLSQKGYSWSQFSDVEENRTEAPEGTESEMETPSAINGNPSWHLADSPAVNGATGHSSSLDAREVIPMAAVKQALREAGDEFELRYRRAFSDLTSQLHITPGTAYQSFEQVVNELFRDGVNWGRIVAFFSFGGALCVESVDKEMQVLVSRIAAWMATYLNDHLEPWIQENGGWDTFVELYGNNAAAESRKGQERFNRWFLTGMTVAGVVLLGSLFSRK

[7] = biological target: DNA (cytosine-5)-methyltransferase 1 (Homo sapiens, UniProt P26358); assay: inhibition of DNA methylation by DNMT1 – biochemical, fluorescent molecular beacon, confirmation (AID 602386); type: functional
DNA (cytosine-5)-methyltransferase 1, sequence (P26358 whole entry): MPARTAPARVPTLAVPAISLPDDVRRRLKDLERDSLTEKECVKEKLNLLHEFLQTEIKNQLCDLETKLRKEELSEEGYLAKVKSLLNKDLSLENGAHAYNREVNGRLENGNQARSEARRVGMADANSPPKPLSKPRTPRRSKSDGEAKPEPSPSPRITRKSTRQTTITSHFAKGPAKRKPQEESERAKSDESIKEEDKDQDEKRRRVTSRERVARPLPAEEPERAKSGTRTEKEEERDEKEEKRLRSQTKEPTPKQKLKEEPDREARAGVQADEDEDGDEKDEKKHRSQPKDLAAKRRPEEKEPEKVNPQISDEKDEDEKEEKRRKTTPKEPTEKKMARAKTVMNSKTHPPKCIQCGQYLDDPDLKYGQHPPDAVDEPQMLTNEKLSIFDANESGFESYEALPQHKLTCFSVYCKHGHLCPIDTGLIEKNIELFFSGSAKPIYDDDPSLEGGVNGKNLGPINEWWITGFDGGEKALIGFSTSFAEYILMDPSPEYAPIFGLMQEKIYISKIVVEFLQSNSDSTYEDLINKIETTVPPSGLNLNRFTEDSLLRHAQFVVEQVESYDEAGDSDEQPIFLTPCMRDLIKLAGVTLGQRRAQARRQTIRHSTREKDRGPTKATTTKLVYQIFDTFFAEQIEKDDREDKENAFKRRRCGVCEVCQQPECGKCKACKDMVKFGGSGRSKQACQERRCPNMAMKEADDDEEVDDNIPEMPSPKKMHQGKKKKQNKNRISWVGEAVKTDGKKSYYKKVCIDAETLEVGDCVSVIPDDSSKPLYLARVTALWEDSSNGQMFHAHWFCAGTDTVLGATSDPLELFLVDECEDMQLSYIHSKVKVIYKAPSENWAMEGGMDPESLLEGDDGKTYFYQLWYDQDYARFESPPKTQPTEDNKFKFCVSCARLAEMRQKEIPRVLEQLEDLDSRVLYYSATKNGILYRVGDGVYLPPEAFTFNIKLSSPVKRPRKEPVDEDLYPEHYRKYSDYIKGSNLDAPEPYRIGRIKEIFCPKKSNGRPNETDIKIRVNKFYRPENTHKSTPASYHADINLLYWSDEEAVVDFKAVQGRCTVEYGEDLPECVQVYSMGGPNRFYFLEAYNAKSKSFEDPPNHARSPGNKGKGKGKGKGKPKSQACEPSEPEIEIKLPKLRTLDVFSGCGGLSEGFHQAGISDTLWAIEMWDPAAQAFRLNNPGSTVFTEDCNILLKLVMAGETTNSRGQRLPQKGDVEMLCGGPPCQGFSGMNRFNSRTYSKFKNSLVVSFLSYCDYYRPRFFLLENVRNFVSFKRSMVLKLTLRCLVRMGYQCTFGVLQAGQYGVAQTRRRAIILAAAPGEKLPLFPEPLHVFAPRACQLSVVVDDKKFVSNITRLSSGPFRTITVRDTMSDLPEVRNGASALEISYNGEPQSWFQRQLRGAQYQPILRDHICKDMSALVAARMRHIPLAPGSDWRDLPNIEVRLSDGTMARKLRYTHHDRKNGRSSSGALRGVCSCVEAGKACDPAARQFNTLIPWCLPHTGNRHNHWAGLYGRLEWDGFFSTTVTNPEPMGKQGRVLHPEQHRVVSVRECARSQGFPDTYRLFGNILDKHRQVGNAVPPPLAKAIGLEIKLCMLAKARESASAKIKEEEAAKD

[8] = biological target: T2, Small ubiquitin-related modifier 1 (Homo sapiens, UniProt P63165); assay: SUMO1 protein interaction blockers, potency – biochemical, fluorescence polarization, uHTS hits, dose response (AID 624382); type: functional; conditions: read-out: IC50_Mean
T2 sequence (P63165 whole entry): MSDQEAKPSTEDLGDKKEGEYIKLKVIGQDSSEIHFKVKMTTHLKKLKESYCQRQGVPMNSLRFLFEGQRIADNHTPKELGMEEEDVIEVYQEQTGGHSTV

[9] = biological target: T2, Small ubiquitin-related modifier 1; assay: SUMO1 protein-protein binding blockers, potency – biochemical, FRET, dose response (AID 624383); type: functional; conditions: read-out: IC50_Mean
[10] = biological target: Nuclear receptor subfamily 5 group A member 2 (Homo sapiens, UniProt O00482); type: functional, cell-based;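 note: HEK293T cells transfected with LRH-1 and a StAR promoter luciferase reporter; potency for inhibitors that lower LRH-1 driven reporter light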
Nuclear receptor subfamily 5 group A member 2, sequence (O00482 whole entry): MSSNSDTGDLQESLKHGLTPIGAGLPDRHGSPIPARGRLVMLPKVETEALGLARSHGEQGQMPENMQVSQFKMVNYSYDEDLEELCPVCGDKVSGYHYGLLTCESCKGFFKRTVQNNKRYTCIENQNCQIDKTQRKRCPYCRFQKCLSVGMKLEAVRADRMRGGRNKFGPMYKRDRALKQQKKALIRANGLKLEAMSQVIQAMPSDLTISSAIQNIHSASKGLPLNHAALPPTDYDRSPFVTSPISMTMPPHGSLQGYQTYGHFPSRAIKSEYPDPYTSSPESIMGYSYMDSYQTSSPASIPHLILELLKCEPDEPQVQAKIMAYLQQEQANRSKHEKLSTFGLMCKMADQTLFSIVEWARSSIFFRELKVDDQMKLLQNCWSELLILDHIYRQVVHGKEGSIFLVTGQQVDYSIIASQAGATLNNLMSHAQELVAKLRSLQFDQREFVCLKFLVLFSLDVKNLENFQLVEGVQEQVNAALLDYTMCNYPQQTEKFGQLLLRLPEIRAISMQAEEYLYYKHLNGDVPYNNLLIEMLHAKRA

[11] = biological target: Steroidogenic factor 1 (Homo sapiens, UniProt Q13285); assay: Counterscreen for inverse agonists of the liver receptor homolog-1 (LRH-1; NR5A2): Luminescence-based cell-based high throughput dose response assay to identify inverse agonists of the Steroidogenic Factor 1 Nuclear Receptor (SF1; NR5A1).; type: functional
Steroidogenic factor 1, sequence (Q13285 whole entry): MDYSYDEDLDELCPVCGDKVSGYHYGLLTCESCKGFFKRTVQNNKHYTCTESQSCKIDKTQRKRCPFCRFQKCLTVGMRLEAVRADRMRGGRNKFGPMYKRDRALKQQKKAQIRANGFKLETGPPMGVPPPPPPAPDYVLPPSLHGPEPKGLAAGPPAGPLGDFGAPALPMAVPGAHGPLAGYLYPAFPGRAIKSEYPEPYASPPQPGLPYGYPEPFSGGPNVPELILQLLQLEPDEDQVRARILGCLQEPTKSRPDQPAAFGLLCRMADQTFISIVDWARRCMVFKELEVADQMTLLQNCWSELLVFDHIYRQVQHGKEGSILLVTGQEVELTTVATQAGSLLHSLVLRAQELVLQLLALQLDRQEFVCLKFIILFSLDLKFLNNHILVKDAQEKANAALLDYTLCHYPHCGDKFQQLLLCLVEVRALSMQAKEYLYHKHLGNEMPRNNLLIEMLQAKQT

[12] = nonselective StAR promoter luciferase inhibitors – cell-based, luminescence, luciferase reporter, counter-screen for LRH-1 inverse agonist project, dose response (AID 651969); type: functional
[13] = biological target: Beta Lactamase (Pseudomonas aeruginosa, UniProt Q932Y6);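 note: confirmatory high-throughput screen measuring VIM-2 metallo-beta-lactamase inhibition by epi-absorbance in dose response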
Beta Lactamase, sequence (Q932Y6 whole entry): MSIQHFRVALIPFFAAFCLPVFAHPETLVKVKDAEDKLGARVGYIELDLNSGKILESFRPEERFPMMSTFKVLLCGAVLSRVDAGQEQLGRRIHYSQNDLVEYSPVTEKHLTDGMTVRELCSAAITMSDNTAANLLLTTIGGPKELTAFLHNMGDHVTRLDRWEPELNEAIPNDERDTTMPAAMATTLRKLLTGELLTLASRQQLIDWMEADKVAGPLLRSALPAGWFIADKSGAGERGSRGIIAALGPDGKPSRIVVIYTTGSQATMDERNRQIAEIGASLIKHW

[14] = biological target: Beta-lactamase (Pseudomonas aeruginosa, UniProt Q79MP6);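 note: biochemical dose-response test of metallo-beta-lactamase enzyme inhibition, read out by epi-absorbance; purified recombinant IMP-1 metallo-beta-lactamase with nitrocefin as substrate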
Beta-lactamase (Pseudomonas aeruginosa, UniProt Q79MP6), sequence (Q79MP6 whole entry): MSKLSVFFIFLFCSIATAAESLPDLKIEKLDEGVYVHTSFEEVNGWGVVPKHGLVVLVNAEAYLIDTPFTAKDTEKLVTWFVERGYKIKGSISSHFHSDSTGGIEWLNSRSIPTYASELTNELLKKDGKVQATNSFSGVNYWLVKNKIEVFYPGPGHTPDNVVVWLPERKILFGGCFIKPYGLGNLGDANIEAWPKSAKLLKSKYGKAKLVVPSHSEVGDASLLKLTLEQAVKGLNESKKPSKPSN

[15] = biological target: Beta-lactamase (Salmonella choleraesuis (strain SC-B67), UniProt Q5J463)
Beta-lactamase (Salmonella choleraesuis (strain SC-B67), UniProt Q5J463), sequence (Q5J463 whole entry): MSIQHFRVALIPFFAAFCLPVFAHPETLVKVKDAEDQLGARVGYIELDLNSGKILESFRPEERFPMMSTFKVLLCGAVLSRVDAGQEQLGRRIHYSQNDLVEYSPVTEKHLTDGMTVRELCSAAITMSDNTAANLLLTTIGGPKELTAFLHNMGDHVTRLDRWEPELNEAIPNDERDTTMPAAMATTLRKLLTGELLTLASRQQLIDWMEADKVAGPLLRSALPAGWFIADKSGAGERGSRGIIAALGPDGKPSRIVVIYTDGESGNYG
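Throughout, for AC50: cells exposed to compound for roughly 70 hours or longer before luminescence read.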

For Cc1nn(Cc2ccccc2)c(C)c1CCC(=O)O, which EC50 [1] is on record?
Its EC50 is > 100 µM (inactive).

Which AC50 [2] does the source give for Cc1ccc(/C=C/C(=O)c2cc(Br)ccc2OC(=O)c2ccco2)cc1 here?
Its AC50 is 4.76 µM (active).

And the CC50 [3]?
Its CC50 is 24.4 µM (active).

What about the IC50 [4] of the same molecule?
Its IC50 is 1.96 µM (active).

Which IC50 [5] does the source give for CCOc1ccc(NC(=O)c2cccc(-n3cccc3)c2)cc1S(=O)(=O)N1CCOCC1 here?
Its IC50 is > 4.03 µM (active).

What about the IC50 [6] of the same molecule?
The IC50 was > 109 µM (not active).

And the IC50 [7]?
Its IC50 is 9.08 µM (active).

What about the IC50 [8] of the same molecule?
Its IC50 is > 66.6 µM (inactive).

And the IC50 [9]?
The IC50 was 3.29 µM (active).

Which results are given for CC1(C(=O)NCc2ccc3c(c2)OCO3)CCN1C(=O)Cc1ccc(Cl)cc1Cl (stereo not given)?
IC50 [10]: 7.36 µM (active); IC50 [11]: 3.32 µM (active); IC50 [12]: 35.9 µM (inactive)

Which IC50 [13] does the source give for C/C(=N\O)c1ccc2c3c([nH]c2c1)CCCC3 here?
The IC50 was > 59.6 µM (inactive).

And the IC50 [14]?
Its IC50 is > 59.6 µM (inactive).

And the IC50 [15]?
Its IC50 is > 59.6 µM (inactive).
